The record followed here is ChEMBL document CHEMBL1201862, “PubChem BioAssay data set” (2004).

One may read the GI50 as the concentration that inhibits growth by half.

Some test systems named below: NCI-H226; Malme-3M; HCT-15; CCRF-CEM; NCI-H23; SNB-75; NCI-H522; OVCAR-4; K562; UO-31; TK-10; A549; RXF 393; MOLT-4; SN12C; HCT-116; SK-OV-3; T47D; CAKI-1; UACC-62.
Holding throughout (assay): DTP human tumour cell line panel, 48 h

Each structure is given as a SMILES string.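 Following 48 hours of exposure in 96-well plates, responses at five concentrations were used to interpolate endpoints linearly. The concentration for 50% growth inhibition is given as GI50.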 The source made the active and inactive calls. Cut-off read from the data, not from the text of the source: active = GI50 up to about 1.1 µM and inactive = higher.

Consider `CN1CCN(C(=O)CCNC(=O)Cc2ccc(C(=O)c3ccccc3)cc2)CC1`, for which the GI50 with NCI-H226 is > 100 µM (inactive); in the test on Malme-3M it was > 100 µM (inactive); in the test with HCT-15 it was more than 100 µM; in the test on CCRF-CEM, 94.8 µM (inactive); with NCI-H23, > 100 µM (inactive); in the test on SNB-75 it was > 100 µM (inactive). Besides, the GI50 is > 100 µM (inactive) in the test with NCI-H522; > 100 µM (inactive) with OVCAR-4; 27.9 µM (inactive) with K562; > 100 µM (inactive) with UO-31; > 100 µM (inactive) in the test with TK-10; > 100 µM (inactive) in the test on A549. The GI50 in the test on RXF 393, with MOLT-4, with SN12C, in the test with HCT-116, with SK-OV-3 and in the test on T47D was > 100 µM (inactive) throughout. Further, the GI50 in the test on CAKI-1 and in the test on UACC-62 was > 100 µM (inactive) each time.

As to `CCCNC(=S)N/N=C(\C)c1ccc(S(=O)(=O)N(C)c2ccccc2)cc1`, the GI50 in the test with NCI-H226 is 29.1 µM (inactive); in the test on Malme-3M, > 100 µM (inactive); with HCT-15, more than 88.5 µM; in the test with CCRF-CEM it was > 31.6 µM (inactive); with NCI-H23, > 60.8 µM (inactive); in the test with SNB-75 it was 17.9 µM (inactive). The GI50 in the test on NCI-H522 is > 100 µM (inactive); in the test with OVCAR-4, > 67.6 µM (inactive); in the test with K562, > 100 µM (inactive); in the test on UO-31, > 100 µM (inactive); in the test on TK-10, 25.5 µM (inactive); with A549 it was 46.3 µM (inactive). Also, the GI50 in the test on RXF 393 is 15.3 µM (inactive); in the test on MOLT-4, > 100 µM (inactive); in the test on SN12C, > 100 µM (inactive); with HCT-116, > 100 µM (inactive); with SK-OV-3, 45 µM (inactive); with T47D, > 67.3 µM (inactive). Moreover, the GI50 with CAKI-1 is 24.2 µM (inactive); in the test on UACC-62, > 100 µM (inactive).

In the case of `COc1cc2c(cc1OC)[C@H]1CN3CCC[C@H]3C=C1c1ccc(OC)c(O)c1-2`, the GI50 was 0.000736 µM (active) with NCI-H226; 0.000608 µM (active) in the test on Malme-3M; 0.000549 µM with HCT-15; 0.000422 µM (active) with CCRF-CEM; 0.000553 µM (active) in the test with NCI-H23; 0.000566 µM (active) in the test on SNB-75. Besides, the 50% growth inhibitory concentration (GI50) with NCI-H522 was 0.000487 µM (active); in the test on OVCAR-4, 0.00031 µM (active); in the test with K562, 0.000512 µM (active); in the test with UO-31, 0.000959 µM (active); with TK-10, 0.000998 µM (active); with A549, 0.000598 µM (active). Moreover, the GI50 with RXF 393 was 0.00667 µM (active); in the test on MOLT-4 it was 0.000486 µM (active); in the test on SN12C, 0.000531 µM (active); in the test with HCT-116 it was 0.000452 µM (active); in the test on SK-OV-3, < 0.0001 µM (active); with T47D, 0.00337 µM (active). The GI50 with CAKI-1 and in the test with UACC-62 was < 0.0001 µM (active) each time.

For the molecule `CS/C(N)=N/c1cccc2ccccc12`, the GI50 in the test with NCI-H226 was > 10 µM (inactive); with Malme-3M, > 10 µM (inactive); in the test with HCT-15, more than 10 µM; in the test with CCRF-CEM, > 10 µM (inactive); in the test with NCI-H23 it was > 10 µM (inactive); with SNB-75 it was > 10 µM (inactive). Besides, the GI50 in the test with NCI-H522, in the test on OVCAR-4, in the test on K562, with UO-31, with TK-10 and in the test on A549 was > 10 µM (inactive) throughout. The GI50 in the test on RXF 393, in the test with MOLT-4, in the test on SN12C, in the test with HCT-116, with SK-OV-3 and with T47D was > 10 µM (inactive) in each case. The GI50 in the test on CAKI-1 and in the test with UACC-62 was > 10 µM (inactive) in each case.

With `COc1ccc(/C=C2\CCC(CN(C)C)C2=O)cc1OC` (stereo not given), the GI50 in the test on NCI-H226 was 13.2 µM (inactive); in the test with Malme-3M it was 3.95 µM (inactive); in the test on HCT-15 it was 2.9 µM; with CCRF-CEM, 1.32 µM (inactive); with NCI-H23, 7.82 µM (inactive); in the test with SNB-75, 8.49 µM (inactive). The GI50 is 1.95 µM (inactive) in the test on NCI-H522; 7.64 µM (inactive) in the test on OVCAR-4; 1.17 µM (inactive) with K562; 11.5 µM (inactive) with UO-31; 7.14 µM (inactive) in the test with TK-10; 17.2 µM (inactive) with A549. Also, the GI50 in the test with RXF 393 was 1.94 µM (inactive); with MOLT-4, 1.29 µM (inactive); in the test with SN12C it was 3.43 µM (inactive); with HCT-116, 2.3 µM (inactive); with SK-OV-3, 19.1 µM (inactive); with T47D it was 5.41 µM (inactive). For the same molecule, the GI50 in the test on CAKI-1 is 4.8 µM (inactive); in the test with UACC-62, 5.46 µM (inactive).

As to `CCCCc1ccc(Nc2nc(Cl)c3ncn(COCCOC(C)=O)c3n2)cc1`, the GI50 in the test with NCI-H226 was 21.5 µM (inactive); in the test on Malme-3M it was 17.3 µM (inactive); in the test with HCT-15, 16.7 µM; in the test with CCRF-CEM, 35.6 µM (inactive); in the test with NCI-H23, 16.2 µM (inactive); with SNB-75, 24.5 µM (inactive). Moreover, the GI50 is 13.6 µM (inactive) in the test on NCI-H522; 33.7 µM (inactive) in the test on OVCAR-4; 6.04 µM (inactive) with K562; 16 µM (inactive) in the test with UO-31; 20.3 µM (inactive) with TK-10; 20.8 µM (inactive) in the test on A549. Further, the GI50 in the test with RXF 393 was 16.9 µM (inactive); with MOLT-4, 21.2 µM (inactive); in the test on SN12C, 21.8 µM (inactive); in the test with HCT-116 it was 17.6 µM (inactive); in the test with SK-OV-3, 19.6 µM (inactive); in the test on T47D, 22.8 µM (inactive). Moreover, the GI50 with CAKI-1 was 1.89 µM (inactive); in the test with UACC-62 it was 17.3 µM (inactive).

For the molecule `Cc1ccc(/C=C/C(=N/NC(=O)N/N=C(/C=C/c2ccc(C)cc2)C(C)(C)CN2CCCCC2)C(C)(C)CN2CCCCC2)cc1`, the GI50 in the test on NCI-H226 was 1.82 µM (inactive); in the test on Malme-3M, 1.67 µM (inactive); in the test on HCT-15, 1.57 µM; in the test with CCRF-CEM, 1.3 µM (inactive); in the test on NCI-H23 it was 2.19 µM (inactive); in the test with SNB-75 it was 1.46 µM (inactive). In addition, the GI50 was 1.63 µM (inactive) in the test with NCI-H522; 2.07 µM (inactive) in the test with OVCAR-4; 0.122 µM (active) with K562; 0.813 µM (active) in the test on UO-31; 1.74 µM (inactive) in the test with TK-10; 1.52 µM (inactive) in the test with A549. Besides, the GI50 was 1.28 µM (inactive) with RXF 393; 0.125 µM (active) with MOLT-4; 1.61 µM (inactive) with SN12C; 1.34 µM (inactive) with HCT-116; 1.77 µM (inactive) in the test on SK-OV-3; 2.19 µM (inactive) in the test on T47D. For the same molecule, the GI50 in the test on CAKI-1 is 2.31 µM (inactive); in the test with UACC-62, 2.3 µM (inactive).

Consider `CC(C)(C)[Si](C)(C)OCC1OC(n2ccc(=O)[nH]c2=O)C(O[Si](C)(C)C(C)(C)C)/C1=C/C#N` (stereo not given), for which the GI50 is 16.8 µM (inactive) in the test with NCI-H226; 12.8 µM (inactive) in the test with Malme-3M; 4.9 µM in the test with HCT-15; 4.23 µM (inactive) in the test with CCRF-CEM; 5.89 µM (inactive) in the test with NCI-H23; 46.6 µM (inactive) in the test with SNB-75. Further, the GI50 with NCI-H522 was 3.67 µM (inactive); with OVCAR-4, > 29.2 µM (inactive); in the test on K562, 1.76 µM (inactive); with UO-31, 4.89 µM (inactive); in the test on TK-10, 12.7 µM (inactive); in the test on A549 it was 4.18 µM (inactive). The GI50 in the test with RXF 393 was 2.91 µM (inactive); in the test on MOLT-4, 2.72 µM (inactive); in the test with SN12C, 3.78 µM (inactive); in the test on HCT-116, 3.36 µM (inactive); in the test on SK-OV-3, 1.79 µM (inactive); in the test on T47D it was 3.93 µM (inactive). Besides, the GI50 in the test on CAKI-1 is 8.43 µM (inactive); with UACC-62, 1.07 µM (active).

As for `CN(C)CCCNC(=O)c1c(O)c2ccccc2[nH]c1=O`, the GI50 was > 100 µM (inactive) with NCI-H226; > 100 µM (inactive) with Malme-3M; more than 100 µM in the test on HCT-15; > 100 µM (inactive) in the test with CCRF-CEM; > 100 µM (inactive) in the test with NCI-H23; > 100 µM (inactive) with SNB-75. Further, the GI50 is > 100 µM (inactive) in the test on NCI-H522; > 100 µM (inactive) in the test with OVCAR-4; > 100 µM (inactive) in the test on K562; 14.5 µM (inactive) with UO-31; > 100 µM (inactive) in the test with TK-10; > 100 µM (inactive) in the test with A549. In addition, the GI50 is 95.7 µM (inactive) in the test with RXF 393; > 100 µM (inactive) in the test on MOLT-4; > 100 µM (inactive) with SN12C; > 100 µM (inactive) in the test on HCT-116; > 100 µM (inactive) in the test with SK-OV-3; > 100 µM (inactive) in the test on T47D. In addition, the GI50 in the test with CAKI-1 was 47.2 µM (inactive); in the test with UACC-62, > 100 µM (inactive).

Consider `C/C=C1/CN2CCC34C5=CC(=O)C(c6cc7c(cc6OC)N(C)C6=C(C(=O)OC)CC8(CC)CCCN9CCC67C98)=CC5=NC23CCC1C4C(=O)OC` (stereo not given), for which the GI50 in the test on NCI-H226 is 20.4 µM (inactive); in the test on Malme-3M, 15 µM (inactive); in the test on HCT-15, 14.6 µM; in the test with CCRF-CEM it was 2.28 µM (inactive); in the test with NCI-H23 it was 14.8 µM (inactive); in the test on SNB-75, 8.11 µM (inactive). For the same molecule, the GI50 was 11.1 µM (inactive) in the test on NCI-H522; 14 µM (inactive) in the test with OVCAR-4; 3.48 µM (inactive) with K562; 12.1 µM (inactive) in the test on UO-31; 17 µM (inactive) in the test on TK-10; 16.2 µM (inactive) in the test on A549. Moreover, the GI50 was 10.3 µM (inactive) with RXF 393; 2.45 µM (inactive) with MOLT-4; 14.5 µM (inactive) in the test on SN12C; 10.9 µM (inactive) with HCT-116; 16.7 µM (inactive) in the test with SK-OV-3; 15.1 µM (inactive) in the test with T47D. For the same molecule, the GI50 in the test with CAKI-1 is 9.51 µM (inactive); in the test with UACC-62, 16.6 µM (inactive).
